Laboratory results from US20060194800A1, “Pteridine derivatives as nitric oxide synthase activators” (University of Strathclyde, priority 2005, published 2006).

Assays:
eNOS [1] = molecular target: T1, eNOS (Sus scrofa, UniProt Q28969); assay: Endothelial cell assay, nitric oxide (NO2+NO3) production; assay type: cell-based, porcine; conditions: 30 μM in DMSO, seven days, DAHP-depleted endothelial cells
T1 construct: endothelial cells that produce eNOS; endogenous in cells; host or cells: primary porcine pulmonary artery endothelial cells
T1 sequence (Q28969 2-1205 limits assumed): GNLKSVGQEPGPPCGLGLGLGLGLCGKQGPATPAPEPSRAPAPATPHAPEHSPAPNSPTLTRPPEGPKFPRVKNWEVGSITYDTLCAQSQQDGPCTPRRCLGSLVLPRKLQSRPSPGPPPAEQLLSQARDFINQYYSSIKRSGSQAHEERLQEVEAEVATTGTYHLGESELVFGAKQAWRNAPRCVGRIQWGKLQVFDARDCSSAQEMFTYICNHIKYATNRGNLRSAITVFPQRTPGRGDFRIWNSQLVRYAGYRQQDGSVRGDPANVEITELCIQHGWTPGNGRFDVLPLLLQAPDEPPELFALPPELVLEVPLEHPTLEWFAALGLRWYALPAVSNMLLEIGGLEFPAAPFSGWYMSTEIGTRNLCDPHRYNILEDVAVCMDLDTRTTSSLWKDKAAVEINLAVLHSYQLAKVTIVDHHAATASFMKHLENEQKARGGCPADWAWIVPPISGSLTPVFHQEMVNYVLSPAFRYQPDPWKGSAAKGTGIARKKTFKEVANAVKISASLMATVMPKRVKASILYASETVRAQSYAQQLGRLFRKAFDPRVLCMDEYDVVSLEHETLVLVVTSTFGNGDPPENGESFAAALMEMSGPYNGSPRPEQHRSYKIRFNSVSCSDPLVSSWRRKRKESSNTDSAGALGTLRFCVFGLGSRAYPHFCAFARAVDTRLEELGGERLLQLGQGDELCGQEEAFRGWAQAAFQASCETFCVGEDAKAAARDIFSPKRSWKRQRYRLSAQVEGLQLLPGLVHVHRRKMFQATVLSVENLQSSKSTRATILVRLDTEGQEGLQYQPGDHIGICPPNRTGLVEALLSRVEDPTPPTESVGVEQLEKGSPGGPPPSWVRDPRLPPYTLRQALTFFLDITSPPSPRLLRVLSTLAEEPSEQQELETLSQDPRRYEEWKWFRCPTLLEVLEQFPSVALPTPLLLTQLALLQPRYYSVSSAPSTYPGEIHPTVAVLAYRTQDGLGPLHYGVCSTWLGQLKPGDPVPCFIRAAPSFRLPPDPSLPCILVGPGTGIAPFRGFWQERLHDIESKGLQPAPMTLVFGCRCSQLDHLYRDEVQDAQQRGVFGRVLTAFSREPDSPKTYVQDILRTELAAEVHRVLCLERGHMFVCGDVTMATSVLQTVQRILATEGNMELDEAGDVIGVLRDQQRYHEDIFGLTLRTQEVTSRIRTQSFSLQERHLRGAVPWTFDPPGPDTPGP
Procedure: The arterial assay is sensitive but slow to perform, and therefore a wider range of compounds was investigated in whole cell preparations. Tests have been carried out using endothelial cells that produce eNOS and stimulated macrophages that produce iNOS. Endothelial cells were isolated from porcine pulmonary artery and grown to confluency in T75 flasks. Subsequently, the cells were seeded into 6-well plates. At confluency, the medium (1 ml/well) was changed and the relevant treatment introduced to all wells in each plate (one treatment/plate). The cells were incubated for a further 7-day period and the experiment was terminated. The media from the wells of respective plates was combined (˜6 mls) and evaporated to approximately 500 μl (˜10-fold). A 50 μl aliquot was removed and any NO3 was converted to NO2 using the NO3 conversion method (Calbiochem Cat No 482702). These treated samples were then assayed using the Greiss reaction as described above giving the content of the combination of (NO2+NO3). WSG1002, as a representative compound, was incubated with a preparation of endothelial cells over seven days in order to accumulate sufficient nitric oxide for assay as described above. Controls included vehicle (0.5% DMSO) and L-NAME (an established NOS inhibitor). WSG1002 caused a doubling of nitric oxide compared with vehicle control.

eNOS [2] = assay: eNOS immunostaining in endothelium of small pulmonary arteries of treated rats; assay type: in vivo, rat; conditions: 14.1 mg/kg/day s.c.
Procedure: Rats were maintained in a chamber containing atmospheric air at 550 mbar for 14 days. […] A group of normotensive and a group of pulmonary hypertensive rats received daily subcutaneous injections of WSG1002 in a dose of 14.1 mg/kg/day during the time that they were in the hypoxic chamber. Other groups of normotensive and pulmonary hypertensive rats had no drugs and are used as control comparison groups. These studies used lungs from the four groups of rats (1) pulmonary hypertensive and treated with WSG1002, (2) normotensive and treated with WSG1002, (3) pulmonary hypertensive and not treated with WSG1002 (4) normotensive and not treated with WSG1002. The rat lungs were fixed with 4% formaldehyde, wax embedded, and 3 μm thick sections were cut. The sections were mounted on silanated slides, rehydrated and treated with 0.3% H2O2 to block endogenous peroxidase activity. Antigens were unmasked by treatment in a microwave oven. […] In the endothelium, the intensity of staining was quantified on a scale of 0-3, where 0=no staining or the same as the negative control, 1=faint staining or staining in a few target cells, 2=moderate staining in most target cells, 3=the maximum staining observed with that antibody in the positive control slides.

## CC(=O)C1=Nc2c(nc(N)[nH]c2=O)NC1(C)C [wsg1002, 6-Acetyl-2-amino-7,7-dimethyl-7,8-dihydro-3H-pteridin-4-one]
eNOS [1]
  nitric oxide production compared with vehicle control: doubling
eNOS [2]; normotensive rats
  eNOS staining in small pulmonary artery endothelium: increased staining for eNOS
eNOS [2]; pulmonary hypertensive rats vs treated normotensive
  eNOS staining in small pulmonary artery endothelium: no further increase
